Source: patent US11141488B2, “Compositions comprising biodegradable copolymers for prolonged local release of an antibiotic” (DEXCEL PHARMA TECHNOLOGIES LTD., priority 2017, dated 2021)
Read-outs that look alike come from different tables or passages of the source.

Legend:
[1] = parenteral administration, levels exceeded for prolonged periods of time; cited from earlier work
[2] = Local and systemic gentamicin levels after single intramuscular injection in rabbits; assay type: in vivo, New Zealand White (NZW) rabbits; settings: rabbit muscle
Procedure: Prior to injection, a skin incision was made in order to expose the muscle. The site of injection was marked by a non-absorbable suture at the upper layer of the muscle. […] Following injection, the skin was closed using surgical clips. The procedure was performed under general anesthesia. Animals were clinically observed for up to 8 weeks post-dosing, if applicable.
Tissue collection was performed by resecting the right paravertebral muscle, transversally slicing into ˜1 cm thick serial sections (total of 7 serial sections), when the injection site was located at the core center of the central section. […] At the injection site, one sample ( ? ) was taken.

[3] = rat skin tissue
Procedure: The site of injection was located at the right mid trunk area close to the spinal cord of the animals. The fur covering the flank and dorsal areas was removed by close clipping using an electric clipper up to 96 hours prior to dosing. Injections were performed using 18-19 G needle. The procedure was performed under general anesthesia. Blood samples were collected at 15 minutes, 30 minutes, 45 minutes, 1 hour, 1.5 hours, 2 hours, 4 hours, 6 hours, 8 hours, 24 hours, 48 hours, 72 hours, 1 week, 2 weeks, 3 weeks, 4 weeks, 6 weeks, and 8 weeks.
Blood samples were processed by centrifugation (3,000 G for 15 minutes at room temperature). Following centrifugation, plasma was removed into plastic tubes, followed by freezing using liquid nitrogen to (−70)-(−80)° C. for subsequent analysis.
Tissue collection was performed following removal of the dorsal trunk area by close clipping using an electrical clipper, if needed. The skin at the dorsal site of the animal was removed and pinned to a cork board. […] The injection site A is marked by a circular area of 1 cm in diameter (1×0.8 cm diameter sample). Circular strips B, C, and D each indicate 0.5 cm strips in width encircling circle (at least 4 samples were taken from each strip).
Thereafter, the samples were injected into a LC-MS/MS system (3 μl for samples at a concentration range of 2.5-170 μg/ml and 20 μl for samples at a concentration range of 0.075-2.5 μg/ml). […] Thereafter, 20 μl of the samples were injected into a LC-MS/MS system.
Sample concentrations were obtained by interpolation from the run defined calibration curve. The raw data was processed using AB SCIEX 1.5.1 software.

In the case of gentamicin, the “systemic levels above which ototoxicity and nephrotoxicity are induced” value [1] is given as 10 to 12 µg/mL, the “local concentration of gentamicin, area B” value ([2]; area B of FIG. 4, 24 hours after single 0.2 ml IM injection of RA:SA (70:30) copolymer with 20 wt % gentamicin sulfate) is given as 46 µg/mL and the “local concentration of gentamicin, area C” value ([2]; area C of FIG. 4, 24 hours after single 0.2 ml IM injection of RA:SA (70:30) copolymer with 20 wt % gentamicin sulfate) is given as 3 µg/mL. The “local concentration of gentamicin, area D” value ([2]; area D of FIG. 4, 24 hours after single 0.2 ml IM injection of RA:SA (70:30) copolymer with 20 wt % gentamicin sulfate) was 6 µg/mL, the “local concentration of gentamicin, area A” value ([2]; injection site, 24 hours after single 0.2 ml IM injection of RA:SA (70:30) copolymer with 20 wt % gentamicin sulfate) was 765 µg/mL and the “local concentration of gentamicin, area A” value ([3]; injection site, 24 hours after single 0.2 ml SC injection of RA:SA (70:30) copolymer with 20 wt % gentamicin sulfate) was 362 µg/mL. The “local concentration of gentamicin, area B” value ([3]; strip B of FIG. 8, 24 hours after single 0.2 ml SC injection of RA:SA (70:30) copolymer with 20 wt % gentamicin sulfate) was 218 µg/mL, the “local concentration of gentamicin, area C” value ([3]; strip C of FIG. 8, 24 hours after single 0.2 ml SC injection of RA:SA (70:30) copolymer with 20 wt % gentamicin sulfate) was 43 µg/mL and the “local concentration of gentamicin, area D” value ([3]; strip D of FIG. 8, 24 hours after single 0.2 ml SC injection of RA:SA (70:30) copolymer with 20 wt % gentamicin sulfate) was 31 µg/mL.
